{"source": "patent US8383619B2", "about": "“Pharmaceutical compounds” (Astex Therapeutics Limited, priority 2008, dated 2013)", "experiment_in_all_cases": "Anti-proliferative assay (Oncodesign)", "format_in_all_cases": "cell-based", "key": {"NCI-H596": {"system": "NCI-H596", "details": "Homo sapiens; NCI-H596 (LUNG); read-out: IC50 (Concentration of test compound)", "method_in_brief": "(§1)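 Proliferation measured by Alamar Blue fluorescence after 72 h compound incubation. IC50 in nM; highest concentration 10,000 nM.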"}, "SK-MEL-2": {"system": "SK-MEL-2", "details": "Homo sapiens; SK-MEL-2 (SKIN); read-out: IC50 (Concentration of test compound)", "method_in_brief": "as §1"}, "BV-173": {"system": "BV-173", "details": "Homo sapiens; BV-173 (BLOOD); read-out: IC50 (Concentration of test compound)", "method_in_brief": "as §1"}, "LS 174T": {"system": "LS 174T", "details": "Homo sapiens, LS174T; LS 174T (COLON); read-out: IC50 (Concentration of test compound)", "method_in_brief": "as §1"}, "LB13-SCLC/OC3": {"system": "LB13-SCLC/OC3", "details": "LB13-SCLC/OC3 (LUNG); read-out: IC50 (Concentration of test compound)", "method_in_brief": "as §1"}, "CCRF-CEM/VLB": {"system": "CCRF-CEM/VLB", "details": "Homo sapiens; CCRF-CEM/VLB (BLOOD); read-out: IC50 (Concentration of test compound)", "method_in_brief": "as §1"}, "SK-MEL-5": {"system": "SK-MEL-5", "details": "Homo sapiens; SK-MEL-5 (SKIN); read-out: IC50 (Concentration of test compound)", "method_in_brief": "as §1"}, "RPMI 8226": {"system": "RPMI 8226", "details": "Homo sapiens; RPMI 8226 (BLOOD); read-out: IC50 (Concentration of test compound)", "method_in_brief": "as §1"}, "LB771-HNSCC": {"system": "LB771-HNSCC", "details": "LB771-HNSCC (HEAD AND NECK); read-out: IC50 (Concentration of test compound)", "method_in_brief": "as §1"}, "CMEL-5": {"system": "CMEL-5", "details": "CMEL-5 (SKIN); read-out: IC50 (Concentration of test compound)", "method_in_brief": "as §1"}, "HCC1954": {"system": "HCC1954", "details": "Homo sapiens; HCC1954 (BREAST); read-out: IC50 (Concentration of test compound)", "method_in_brief": "as §1"}, "PANC-1": {"system": "PANC-1", "details": "Homo sapiens; PANC-1 (PANCREAS); read-out: IC50 (Concentration of test compound)", "method_in_brief": "as §1"}, "SK-MES-1": {"system": "SK-MES-1", "details": "Homo sapiens; SK-MES-1 (LUNG); read-out: IC50 (Concentration of test compound)", "method_in_brief": "as §1"}, "CGL-3": {"system": "CGL-3", "details": "CGL-3 (BRAIN); read-out: IC50 (Concentration of test compound)", "method_in_brief": "as §1"}, "RPMI 8226/Dox40": {"system": "RPMI 8226/Dox40", "details": "Homo sapiens; RPMI 8226/Dox40 (BLOOD); read-out: IC50 (Concentration of test compound)", "method_in_brief": "as §1"}, "KATO III": {"system": "KATO III", "details": "Homo sapiens; KATO III (STOMACH); read-out: IC50 (Concentration of test compound)", "method_in_brief": "as §1"}, "LAMA-84": {"system": "LAMA-84", "details": "Homo sapiens; LAMA-84 (BLOOD); read-out: IC50 (Concentration of test compound)", "method_in_brief": "as §1"}, "MDA-MB-435": {"system": "MDA-MB-435", "details": "Homo sapiens; MDA-MB-435 (BREAST); read-out: IC50 (Concentration of test compound)", "method_in_brief": "as §1"}, "K-562/Gleevec": {"system": "K-562/Gleevec", "details": "Homo sapiens, K562; K-562/Gleevec (BLOOD); read-out: IC50 (Concentration of test compound)", "method_in_brief": "as §1"}, "NCI-H1299": {"system": "NCI-H1299", "details": "Homo sapiens; NCI-H1299 (LUNG); read-out: IC50 (Concentration of test compound)", "method_in_brief": "as §1"}, "KB": {"system": "KB", "details": "Homo sapiens; KB (HEAD AND NECK); read-out: IC50 (Concentration of test compound)", "method_in_brief": "as §1"}, "HCT 116": {"system": "HCT 116", "details": "Homo sapiens; HCT 116 (COLON); read-out: IC50 (Concentration of test compound)", "method_in_brief": "as §1"}, "CGL-1": {"system": "CGL-1", "details": "CGL-1 (BRAIN); read-out: IC50 (Concentration of test compound)", "method_in_brief": "as §1"}, "KB3": {"system": "KB3", "details": "KB3 (HEAD AND NECK); read-out: IC50 (Concentration of test compound)", "method_in_brief": "as §1"}, "MDA-MB-435S": {"system": "MDA-MB-435S", "details": "Homo sapiens; MDA-MB-435S (BREAST); read-out: IC50 (Concentration of test compound)", "method_in_brief": "as §1"}}, "data": [{"smiles": "CC(C)c1cc(C(=O)N2Cc3ccc(CN4CCN(C)CC4)cc3C2)c(O)cc1O", "note": "[(2,4-dihydroxy-5-isopropyl-phenyl)-[5-(4-methyl-piperazin-1-ylmethyl)-1,3-dihydro-isoindol-2-yl]-methanone]", "values": [{"measurement": "IC50", "setting": "NCI-H596", "result": 84, "unit": "nM"}, {"measurement": "IC50", "setting": "SK-MEL-2", "result": 138, "unit": "nM"}, {"measurement": "IC50", "setting": "BV-173", "result": 73, "unit": "nM"}, {"measurement": "IC50", "setting": "LS 174T", "result": 159, "unit": "nM"}, {"measurement": "IC50", "setting": "LB13-SCLC/OC3", "result": 21, "unit": "nM"}, {"measurement": "IC50", "setting": "CCRF-CEM/VLB", "result": "> 10000", "unit": "nM"}, {"measurement": "IC50", "setting": "SK-MEL-5", "result": 185, "unit": "nM"}, {"measurement": "IC50", "setting": "RPMI 8226", "result": 10, "unit": "nM"}, {"measurement": "IC50", "setting": "LB771-HNSCC", "result": 391, "unit": "nM"}, {"measurement": "IC50", "setting": "CMEL-5", "result": 130, "unit": "nM"}, {"measurement": "IC50", "setting": "HCC1954", "result": 28, "unit": "nM"}, {"measurement": "IC50", "setting": "PANC-1", "result": 327, "unit": "nM"}, {"measurement": "IC50", "setting": "SK-MES-1", "result": 270, "unit": "nM"}, {"measurement": "IC50", "setting": "CGL-3", "result": 75, "unit": "nM"}, {"measurement": "IC50", "setting": "RPMI 8226/Dox40", "result": 213, "unit": "nM"}, {"measurement": "IC50", "setting": "KATO III", "result": 162, "unit": "nM"}, {"measurement": "IC50", "setting": "LAMA-84", "result": 1100, "unit": "nM"}, {"measurement": "IC50", "setting": "MDA-MB-435", "result": 122, "unit": "nM"}, {"measurement": "IC50", "setting": "K-562/Gleevec", "result": 175, "unit": "nM"}, {"measurement": "IC50", "setting": "NCI-H1299", "result": 587, "unit": "nM"}, {"measurement": "IC50", "setting": "KB", "result": 48, "unit": "nM"}, {"measurement": "IC50", "setting": "HCT 116", "result": 38, "unit": "nM"}, {"measurement": "IC50", "setting": "CGL-1", "result": "> 10000", "unit": "nM"}, {"measurement": "IC50", "setting": "KB3", "result": 48, "unit": "nM"}, {"measurement": "IC50", "setting": "MDA-MB-435S", "result": 26, "unit": "nM"}]}]}
